Measured values taken from article PMC4721142, “Randomized controlled studies on the efficacy of antiarthritic agents in inhibiting cartilage degeneration and pain associated with progression of osteoarthritis in the rat” (Arthritis Research & Therapy, 2016).
“And” between values parts separate entries of the source, which are not always exact repeats. Equal values may be shown once.

How the values were obtained:
MIA rat model of OA = assay: MIA trial 2 histopathology (same doses as dRS test); format: in vivo; set-up: key to Total joint score with matrix / Total joint score w/o matrix: sum of cartilage degeneration, osteophyte and bone scores (± matrix); conditions: group mean; tacrolimus 0.3 mg/kg, other drugs single dose
Experimental: Following functional testing in the first and second MIA trials, femurs were fixed in paraformaldehyde, processed, sectioned, stained with hematoxylin and eosin or Safranin O at Premier Laboratory (Longmont, CO, USA), and analyzed by a veterinary pathologist. For MIA trial 1, sections were evaluated for the percentage area of chondrocyte necrosis and/or proteolytic degeneration using a 5-point scale with 0 = none; 1 being <10 %; 2 = 10–30 %; 3 = 30–60 %; 4 = 60–90 %; and 5 being >90 %. Other characteristics of inflammation, proliferation, and integrity of the synovium, subchondral bone, and articular cartilage were scored as normal, minimal, mild, moderate, marked, or increased or decreased when severity was not graded. MIA trial 2 was measured similarly and then cross-checked according to the methods used for MIA trial 3 (see text below).
For MIA trial 3, joints were fixed and toluidine blue–stained sections of the rat knees were comprehensively analyzed from test and control subjects as detailed in Additional file 1. Briefly, a 5-point cartilage matrix score was derived based upon (1) approximate percentage of total loss of articular chondrocytes for each of four articular surfaces, (2) estimated proteoglycan loss (via Safranin O staining), and (3) loss of interstitial matrix. Chondrocyte necrosis and proteolytic degeneration of the femurs were scored on a 5-point scale as in trial 1. A femoral cartilage degeneration score and a three-zone sum of the tibial cartilage degeneration scores (mean of three levels) were also summed to create a total cartilage degeneration score. The mean osteophyte score for each joint was added to this value to create a total joint score with matrix. Other parameters assessed included synovial membrane inflammation and proliferation. Representative images from each group were also collected (see, e.g., Fig. 4 and Additional file 1: Fig. S55, Trial 3).
The histopathology for the first MIA trial was performed by Premier Laboratories (Dr. Michael Hawes, APS, Pathologist). Treatments were masked during the assessment. Chondrocyte necrosis and proteolytic degeneration of the femurs were scored on a 5 point scale with 0 = None; 1 = <10%; […]
proteoglycan content (safranin O staining), synovial membrane inflammation and proliferation, subchondral bone, and articular cartilage (as indicated in Supplementary methods). Characteristics within these categories were scored as normal, minimal, mild, moderate, marked, or +/- when severity was not graded. Slides from Trial 2 were further reviewed by Dr. Bendele using the analytical method described below for the MMT/MCLT model to confirm any conclusions.
For the histopathology of the MIA model in Trial 3, completed by Bolder BioPATH (and Dr.
Bendele), a tolouidine blue stained slide containing both halves of the joint was comprehensively analyzed from test and control subjects. Approximate % of total loss of articular chondrocytes, loss of proteoglycan and loss of collagenous matrix were determined for each articular surface (medial tibial plateau (MTP), lateral tibial plateau (LTP), medial femoral condyle (MFC), and lateral femoral condyle (LFC). Chondrocyte loss was quantified by estimating the area of cartilage in which there were no apparently viable chondrocytes and proteoglycan loss was quantified by estimating differences in intensity of toluidine blue matrix staining. Loss of interstitial matrix was an indication of disruption and diminished type II collagen. Based on the mean % loss for the four surfaces in these parameters, a five point matrix score was utilized with the subchondral bone resorption, subchondral bone sclerosis and osteophyte scores to achieve a total joint score.
(§1) Histopathology MMT/MCLT Model

MMT/MCLT rat model of OA = assay: MMT/MCLT trial 2 histopathology (same doses); format: in vivo; set-up: key to Total joint score w/o femur / Total joint score: sum: cartilage degeneration scores + mean osteophyte score; conditions: i.a., tacrolimus 15 ng; for Femoral cartilage degeneration score / Total joint score: mean
From the text: For MMT/MCLT rat knee joints, sections were cut in 200-μm steps; stained with toluidine blue (also with a right and left half per section); and similarly analyzed for cartilage degeneration, proteoglycan loss, collagen damage, and osteophyte formation. Results were averaged across the three sections for an overall semiquantitative score. Regional differences across the tibial plateau were taken into consideration by dividing each section into three zones delineated using an ocular micrometer (outside, middle, and inside). Scores were based on the percentage of area affected within the zone.
Cartilage degeneration in the tibia was scored on a 5-point scale as detailed in the Methods section of Additional file 1. The total extent of degeneration of the tibial plateau was measured (in micrometers) and included an analysis of cell loss, proteoglycan loss, and collagen damage. Significant cartilage degeneration reflecting any degeneration extending through more than 50 % of the cartilage thickness was also measured. Collagen damage across the medial tibial plateau (the most severely affected section of the two halves) was also quantified.
Osteophytes and femoral cartilage degeneration were analyzed as detailed in Additional file 1. Scoring of the osteophytes and categorization into small, medium, and large was performed using an ocular micrometer. The actual osteophyte measurement (tidemark to farthest distance point extending toward the synovium) was also recorded. The femoral cartilage degeneration score and the three-zone sum of the tibial cartilage degeneration scores (mean of three levels) were summed to create a total cartilage degeneration score. The mean osteophyte score for each joint was added to this value to create a total joint score. […]
as §1

COc1cc(/C=C/C(=O)CC(=O)/C=C/c2ccc(O)c(OC)c2)ccc1O [Curcumin, Diferuloylmethane]
Bone resorption score (MIA rat model of OA): 4.8
Bone resorption, percent of surface, LFC (MIA rat model of OA): 100%
Bone resorption, percent of surface, LTP (MIA rat model of OA): 100%
Bone resorption, percent of surface, MFC (MIA rat model of OA): 88%
Bone resorption, percent of surface, MTP (MIA rat model of OA): 90%
Bone resorption, percent of surface, mean (MIA rat model of OA): 94%
Cartilage matrix damage score (MIA rat model of OA): 5.0 and 5.0 ± 0.0
Mean of all cartilage loss (MIA rat model of OA): 89%
Osteophyte measure (MIA rat model of OA): 1000.0 µm
Osteophyte score (MIA rat model of OA): 4.8
Subchondral bone sclerosis score (MIA rat model of OA): 0.0
Total joint score w/o matrix (MIA rat model of OA): 9.5
Total joint score with matrix (MIA rat model of OA): 14.5 and 14.5 ± 0.3
Femoral cartilage degeneration score (MMT/MCLT rat model of OA): 1.63 ± 0.61
Total joint score (MMT/MCLT rat model of OA): 9.57 ± 0.91
% decrease, tibial score zone 2 (MMT/MCLT rat model of OA; vs saline group, curcumin 30 μg): 40%

CC1(C)O[C@@H]2C[C@H]3[C@@H]4C[C@H](F)C5=CC(=O)C=C[C@]5(C)[C@@]4(F)[C@@H](O)C[C@]3(C)[C@]2(C(=O)CO)O1 [Fluocinolone, Fluocinolone Acetonide]
Bone resorption score (MIA rat model of OA): 3.0
Bone resorption, percent of surface, LFC (MIA rat model of OA): 65%
Bone resorption, percent of surface, LTP (MIA rat model of OA): 58%
Bone resorption, percent of surface, MFC (MIA rat model of OA): 38%
Bone resorption, percent of surface, MTP (MIA rat model of OA): 45%
Bone resorption, percent of surface, mean (MIA rat model of OA): 51%
Cartilage matrix damage score (MIA rat model of OA): 3.3 and 3.3 ± 0.8
Mean of all cartilage loss (MIA rat model of OA): 60%
Osteophyte measure (MIA rat model of OA): 600.0 µm
Osteophyte score (MIA rat model of OA): 3.0
Subchondral bone sclerosis score (MIA rat model of OA): 0.0
Total joint score w/o matrix (MIA rat model of OA): 6.0
Total joint score with matrix (MIA rat model of OA): 9.3 and 9.3 ± 2.5
Femoral cartilage degeneration score (MMT/MCLT rat model of OA): 0.8 ± 0.25
Total joint score (MMT/MCLT rat model of OA): 9.80 ± 0.51

CC(C)(C)CC(=O)OCC(=O)[C@@]12OC(C)(C)O[C@@H]1C[C@H]1[C@@H]3CCC4=CC(=O)C=C[C@]4(C)[C@@]3(F)[C@@H](O)C[C@@]12C [Triamcinolone hexacetonide]
Femoral cartilage degeneration score (MMT/MCLT rat model of OA): 2.03 ± 0.52
Total joint score (MMT/MCLT rat model of OA): 11.30 ± 1.21
